No end group written: not given here.
What was measured:
HLA-A1 (A*0101) = HLA-A1 (A*0101) (Homo sapiens, UniProt P04439, A114D/A174V/A182V/D101N/D185E/E176A/E190D/L180R/Q94H/R68K/S129P/T187R/V100A/V91M/W191G); assay: biochemical; assay type: binding
A*2601 = A*2601 (Homo sapiens, UniProt P04439, A114D/A173T/A270S/D101N/D185E/E277Q/E87N/F33Y/G231S/I121R/I218V/K168Q/L180W/L300P/L318F/P208A/P217A/Q86R/Q94H/R138Q/S129P/T187R/T323A/T345S/V100A/V358M); assay: biochemical; assay type: binding
A*2902 = A*2902 (Homo sapiens, UniProt P04439, A270S/D101N/D185E/E176V/E277Q/E87Q/F33T/G231S/H175R/I121M/I218V/I322F/K168Q/L300P/L318F/M331R/P208A/P217A/Q86L/T323A/T345S/V100A/V358M); assay: biochemical; assay type: binding
A*3002 = A*3002 (Homo sapiens, UniProt P04439, D101N/D140H/D185E/E176R/F33S/G80R/H175R/K168Q/Q94H/R138E/R41S/V100E); assay: biochemical; assay type: binding
HLA-A*0201 (HLA-A2.1) = HLA-A*0201 (HLA-A2.1) (Homo sapiens, UniProt P04439, D140Y/D185E/D98H/E176V/E277Q/G131W/G231S/I119V/I121R/I166T/I218V/L300P/L318F/N151K/N90K/P208A/P217A/Q86G/Q94H/R138H/R169H/T345S); assay: biochemical; assay type: binding
HLA-A24 = assay type: binding, human
A2.1 HLA molecules = A2.1 HLA molecules (Homo sapiens, UniProt P04439, D140Y/D185E/D98H/E176V/E277Q/G131W/G231S/I119V/I121R/I166T/I218V/L300P/L318F/N151K/N90K/P208A/P217A/Q86G/Q94H/R138H/R169H/T345S); assay type: binding; set-up: A*0201 / A2.1 Binding / A2 Bind. / A2 / A2.1 (binding capacity): scale not given here

A*3002, sequence (P04439 whole entry, looked up, the tested form may be a part, stated change not applied): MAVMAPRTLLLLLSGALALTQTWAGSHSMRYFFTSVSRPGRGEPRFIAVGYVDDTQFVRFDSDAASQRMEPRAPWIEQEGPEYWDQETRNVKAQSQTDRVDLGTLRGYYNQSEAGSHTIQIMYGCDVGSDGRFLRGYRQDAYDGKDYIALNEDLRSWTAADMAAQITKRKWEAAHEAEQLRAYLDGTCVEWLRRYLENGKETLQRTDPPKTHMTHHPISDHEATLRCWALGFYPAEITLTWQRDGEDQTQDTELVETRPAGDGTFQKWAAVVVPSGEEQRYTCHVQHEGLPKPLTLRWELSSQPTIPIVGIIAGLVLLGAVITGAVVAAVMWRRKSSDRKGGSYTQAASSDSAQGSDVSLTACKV

Compound | IC50 (HLA-A1 (A*0101)) [nM] | IC50 (A*2601) [nM] | IC50 (A*2902) [nM] | IC50 (A*3002) [nM] | binding to HLA-A2.1 (column 3; no allele head shown for these rows) (HLA-A*0201 (HLA-A2.1)) | binding to HLA-A24 (column 6; no allele head shown for these rows) (HLA-A24) | A2 (A2.1 HLA molecules) | A2 Bind. (A2.1 HLA molecules) | A2.1 relative binding (ratio of binding of test peptide relative to standard peptide) (A2.1 HLA molecules)
TIEKLTNTGLY [Peptide 1589.45] | 78 | 12 | 15100 | 220 | – | – | – | – | –
LTSALEIPY [Peptide 1549.40] | 57 | 358 | – | 161 | – | – | – | – | –
NTGILTVTY [Peptide 86.0152] | – | 3150 | 1400 | 8720 | – | – | – | – | –
LQDKILDHY [Peptide 1580.27] | 66 | 7410 | > 20000 | 926 | – | – | – | – | –
KMVELVHFLL | – | – | – | – | 0.071 | 0.0008 | 0.2200 | 0.1100 | –
QAEPDTSNY [Peptide 1549.03] | 319 | > 20000 | > 20000 | 9930 | – | – | – | – | –
TTSPLNTSY [Peptide 9012.0116] | – | 2.6 | – | 12 | – | – | – | – | –
KTGILTVTY [Peptide 86.0146] | 855 | > 20000 | 3390 | 20 | – | – | – | – | –
LSDALEIPY [Peptide 1549.41] | 12 | 629 | 1600 | 8690 | – | – | – | – | –
LVLGTLEEV | – | – | – | – | 0.032 | 0.0003 | 0.0320 | 0.0320 | 0.032
VQDKILDIY [Peptide 1580.32] | – | > 20000 | > 20000 | 3810 | – | – | – | – | –
ATCVSHRGLY [Peptide 1580.22] | – | 492 | 4210 | – | – | – | – | – | –
KTDILTVTY [Peptide 1593.11] | – | > 20000 | > 20000 | 922 | – | – | – | – | –
RTDPVTLDVLY [Peptide 9012.0168] | 6.7 | 2520 | 1310 | 10 | – | – | – | – | –
EVDYVGLYY [Peptide 1580.33] | 3.6 | 161 | 4.5 | > 20000 | – | – | – | – | –
KVADLVGFLL | – | – | – | – | 0.041 | 0.0070 | – | 0.0560 | –

Compound | IC50 (HLA-A1 (A*0101)) [nM] | IC50 (A*2601) [nM] | IC50 (A*2902) [nM] | IC50 (A*3002) [nM] | binding to HLA-A2.1 (column 3; no allele head shown for these rows) (HLA-A*0201 (HLA-A2.1)) | binding to HLA-A24 (column 6; no allele head shown for these rows) (HLA-A24) | A2 (A2.1 HLA molecules) | A2 Bind. (A2.1 HLA molecules) | A2.1 relative binding (ratio of binding of test peptide relative to standard peptide) (A2.1 HLA molecules)
CC[C@H](C)[C@H](N)C(=O)N[C@@H](CO)C(=O)N[C@@H](CCC(=O)O)C(=O)N[C@@H](Cc1ccc(O)cc1)C(=O)N[C@@H](CCCNC(=N)N)C(=O)N[C@@H](Cc1c[nH]cn1)C(=O)N[C@@H](Cc1ccc(O)cc1)C(=O)N[C@@H](CS)C(=O)N[C@@H](Cc1ccc(O)cc1)C(=O)O [Peptide 1571.27] | 38 | > 20000 | 264 | 62 | – | – | – | – | –
LTDKIIDHY [Peptide 1593.09] | – | > 20000 | > 20000 | 6800 | – | – | – | – | –
VQEKILDLY [Peptide 86.0149] | 1440 | 8180 | 17000 | 193 | – | – | – | – | –
ATDVSHRGLY [Peptide 1593.10] | 26 | 18 | 1620 | 15 | – | – | – | – | –
ASDVTACPYNY [Peptide 9012.0176] | 18 | 5830 | 2440 | 205 | – | – | – | – | –
GTDQATPGPAY [Peptide 9012.0160] | – | 3850 | – | 234 | – | – | – | – | –
LQDKIIDHY [Peptide 1580.21] | – | > 20000 | > 20000 | 2770 | – | – | – | – | –
VTDSRNTKY [Peptide 1580.30] | 25 | > 20000 | > 20000 | – | – | – | – | – | –
ETDEEITGYLY [Peptide 9012.0180] | 6.4 | 27 | 277 | – | – | – | – | – | –
WTSTDNKNY [Peptide 1580.31] | 163 | 4830 | > 20000 | 7310 | – | – | – | – | –
VTADLRIVY [Peptide 1549.50] | 1520 | 121 | 228 | 50 | – | – | – | – | –
ALREEEEGV | – | – | – | – | 0.0056 | 0 | – | 0.0210 | –
ISDSYTYY [Peptide 9012.0102] | – | 8550 | 1990 | 9110 | – | – | – | – | –
DSVSSTCRY [Peptide 86.0156] | 3060 | 12 | > 20000 | 994 | – | – | – | – | –
CTDKILEHY [Peptide 1593.14] | 110 | > 20000 | > 20000 | – | – | – | – | – | –
